The target of test [1] is T1, human RORγt ligand binding domain (RORγt LBD) (Homo sapiens, UniProt P51449).
T1 construct: His-tag (N); TurboTEV protease cleavage site (ENLYFQG) (N); made in house; host or cells: E. coli (pHIS1, modified pET vector)
T1 sequence (P51449 with tags, fused parts or gaps): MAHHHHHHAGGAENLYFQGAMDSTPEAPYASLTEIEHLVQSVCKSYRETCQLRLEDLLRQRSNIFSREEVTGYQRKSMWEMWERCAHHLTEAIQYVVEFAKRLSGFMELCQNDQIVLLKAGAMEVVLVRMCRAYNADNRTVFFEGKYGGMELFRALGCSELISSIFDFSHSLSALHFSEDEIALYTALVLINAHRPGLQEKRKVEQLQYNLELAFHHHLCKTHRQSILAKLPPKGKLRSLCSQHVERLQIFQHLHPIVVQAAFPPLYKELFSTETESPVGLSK
Description: RORγt ThermoFluor assay (thermal shift, ligand binding affinity). Particulars: estimated from concentration response of thermal shift. Here is the method: This approach is applicable to a wide variety of systems, and rigorous in theoretical interpretation through quantitation of equilibrium binding constants (KD).
The shift in the melting point described as a ΔTm is proportional to the concentration and affinity of the ligand.
RORγt ThermoFluor® Assay Construct
Protein and compound solutions are dispensed into black 384-well polypropylene PCR microplates (Abgene) and overlayed with silicone oil (1 μL Fluka, type DC 200) to prevent evaporation.
Fluorescence was measured by continuous illumination with UV light (Hamamatsu LC6) supplied via fiber optic and filtered through a band-pass filter (380-400 nm; >6 OD cutoff). Fluorescence emission of the entire 384-well plate was detected by measuring light intensity using a CCD camera (Sensys, Roper Scientific) filtered to detect 500±25 nm, resulting in simultaneous and independent readings of all 384 wells. Images were collected at each temperature, and the sum of the pixel intensity in a given area of the assay plate was recorded versus temperature. Reference wells contained RORγt without compounds, and the assay conditions were as follows: • 0.065 mg/mL RORγt • 60 μM 1,8-ANS • 100 mM Hepes, pH 7.0 • 10 mM NaCl • 2.5 mM GSH • 0.002% Tween-20
Project compounds were arranged in a pre-dosed mother plate (Greiner Bio-one) wherein compounds are serially diluted in 100% DMSO by 1:2 from a high concentration of 10 mM over 12 columns within a series (column 12 is a reference well containing DMSO, no compound).
The compounds were robotically dispensed directly into assay plates (1×=[…]) using a Hummingbird capillary liquid handling instrument (Digilab). Following compound dispense, protein and dye in buffer was added to achieve the final assay volume of 3 μL, followed by 1 μL of silicone oil.

The target in a further test is T2, human RORγt LBD (Homo sapiens, UniProt P51449).
T2 construct: expressed in transfected cells
T2 sequence (P51449 258-518): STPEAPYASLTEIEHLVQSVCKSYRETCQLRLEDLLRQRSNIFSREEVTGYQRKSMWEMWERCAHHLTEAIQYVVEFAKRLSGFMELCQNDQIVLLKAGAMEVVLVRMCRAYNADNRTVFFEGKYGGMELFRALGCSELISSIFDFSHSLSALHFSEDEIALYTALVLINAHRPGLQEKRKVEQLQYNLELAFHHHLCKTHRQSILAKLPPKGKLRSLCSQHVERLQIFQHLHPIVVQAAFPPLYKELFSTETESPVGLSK
The experiment in a line: RORγt reporter assay (GAL4-RORγt LBD luciferase in HEK293T cells). Particulars: for IC50: HEK293T cells, 24 hours compound treatment; for inhibition at 6 µM: HEK-293T, read-out: RORγt reporter Assay, % inhibition @ 6 μM, HEK293T cells, 6 μM compound. It is filed as cell-based. An excerpt: A reporter assay was used to test functional activity of RORγt modulatory compounds on transcriptional activation driven by the RORγt LBD. Cells used in the assay were co-transfected with two constructs. The first construct, pBIND-RORγt LBD, contained the wild type human RORγt LBD fused to the DNA binding domain of the GAL4 protein. The second construct, pGL4.31 (Promega Cat no. C935A), contained multiple GAL4 responsive DNA elements upstream of firefly luciferase. […] The mutant construct was called pBIND-RORγt-AF2.
The pBIND vector contains the GAL4 DNA Binding Domain (GAL4 DBD) and the renilla luciferase gene under control of the SV40 promoter. Renilla luciferase expression serves as a control for transfection efficiency and cell viability.
The reporter assay was performed by transiently transfecting HEK293T cells with 5 ng of pBIND-RORγt LBD or pBIND-RORγt LBD-AF2 and 5 μg pGL4.31 (Promega Cat no. C935A) using Fugene 6 (Invitrogen Cat no. E2691) at a 1:6 ratio of DNA:Fugene 6 in a T-75 flask in which cells were at least 80% confluent. Twenty four hours after bulk transfection, cells were plated into 96-well plates at 50,000 cells/well in phenol-red free DMEM containing 5% Lipid Reduced FCS and Pen/Strep. Six hours after plating, cells were treated with compounds for 24 hours. Media was removed and cells were lysed with 50 μL 1× Glo Lysis Buffer (Promega). Dual Glo Luciferase Reagent (50 μL/well) was then added and firefly luciferase luminescence was read on an Envision after a ten minute incubation. Finally, Stop and Glo reagent (50 μL/well) was added and renilla luciferase luminescence was read on an Envision after a ten minute incubation. To calculate the effect of compounds on RORγt activity, the ratio of firefly to renilla luciferase was determined and plotted against compound concentration. Agonist compounds increase RORγt-driven luciferase expression, and antagonist or inverse agonist compounds decrease luciferase expression.

Values joined by “and” are separate entries in the source; they are usually repeats but may differ in a detail not shown here. Identical values can stand only once. Counter-ions that a name gives are not always drawn.

Turning to `Cc1nn(C)c(C)c1C(O)(c1ccccc1)c1ccc2nc(Cl)c(-c3ccccc3Cl)c(Cl)c2c1` (stereo not drawn) [Example 7, (2,4-Dichloro-3-(2-chlorophenyl)quinolin-6-yl)(phenyl)(1,3,5-trimethyl-1H-pyrazol-4-yl)methanol], the Kd (usually a measure of binding affinity in units of concentration) in test [1] is 5.3 µM. In addition, on human RORγt LBD, 1.2 µM corresponded to half-maximal inhibition (IC50) and the inhibition (as a rule, the relative decrease from the control value, in per cent) at 6 µM was found to be 83%.
The corresponding values for `CCCCc1c(-c2ccccc2)c(Cl)nc2ccc(C(O)(c3ccncc3)c3cncn3C)cc12` (stereo not drawn) [Example 78, (4-Butyl-2-chloro-3-phenylquinolin-6-yl)(1-methyl-1H-imidazol-5-yl)pyridin-4-ylmethanol•TFA] are 0.27 µM, about 2 µM and 92%.
The matching figures for `Cn1cncc1C(O)(c1ccc2nc(C(F)(F)F)c(-c3ccccc3)c(C#N)c2c1)c1ccccn1` (stereo not drawn) [Example 118, 6-(Hydroxy(1-methyl-1H-imidazol-5-yl)(pyridin-2-yl)methyl)-3-phenyl-2-(trifluoromethyl)quinoline-4-carbonitrile•TFA]: 0.36 µM, 0.37 µM and 94%.
Regarding `Cn1cncc1C(O)(c1ccncc1)c1ccc2nc(N3CCC(O)CC3)c(-c3ccccc3)c(Cl)c2c1` (stereo not drawn) [Example 72, 1-{4-Chloro-6-[hydroxy(1-methyl-1H-imidazol-5-yl)pyridin-4-ylmethyl]-3-phenylquinolin-2-yl}piperidin-4-ol•TFA], the Kd in test [1] was 8.5 µM. Further, at human RORγt LBD, the 50% inhibitory concentration (IC50) (usually the point on the concentration scale where inhibition reaches its midpoint) was about 2 µM and the inhibition at 6 µM amounted to 83%.
Turning to `OC(c1cccnc1)(c1ccc2nc(Cl)c(-c3ccccc3)c(Cl)c2c1)C1CCCNC1` (stereo not drawn) [Example 93, (2,4-Dichloro-3-phenylquinolin-6-yl)(piperidin-3-yl)pyridin-3-ylmethanol•TFA], the Kd in test [1] is 1.2 µM. Moreover, at human RORγt LBD, the IC50 is over 6 µM and the inhibition at 6 µM turned out to be 49%.
The corresponding values for `CCOc1nc2ccc(C(O)(c3ccncc3)c3cncn3C)cc2c(OCC)c1-c1ccccc1` (stereo not drawn) [Example 82, (2,4-Diethoxy-3-phenylquinolin-6-yl)(1-methyl-1H-imidazol-5-yl)pyridin-4-ylmethanol•TFA] are 0.56 µM, about 4 µM and 71%.
The corresponding values for `Cc1cc(C(O)(c2ccc(F)cc2)c2cncn2C)cc2c(C#N)c(-c3cccc(F)c3)c(C#N)nc12` (single isomer, unassigned) [Example 175b, 3-(3-Fluorophenyl)-6-((4-fluorophenyl)(hydroxy)(1-methyl-1H-imidazol-5-yl)methyl)-8-methylquinoline-2,4-dicarbonitrile] are 8.2 µM, 2.1 µM and 76%.
In the case of `Cc1nc2cc(C(O)(c3ccc4nc(Cl)c(-c5ccccc5)c(Cl)c4c3)c3cncn3C)ccc2o1` (stereo not drawn) [Example 146, (2,4-Dichloro-3-phenylquinolin-6-yl)(1-methyl-1H-imidazol-5-yl)(2-methylbenzo[d]oxazol-5-yl)methanol], the equilibrium dissociation constant (Kd) in test [1] was 0.077 µM. At human RORγt LBD, the IC50 is 0.13 µM and the inhibition at 6 µM was found to be 112%.
The matching figures for `CC(C)(C)OC(=O)N1CCCC(C(O)(c2cccnc2)c2ccc3nc(Cl)c(-c4ccccc4)c(Cl)c3c2)C1` (stereo not drawn) [Example 5, tert-Butyl 3-((2,4-Dichloro-3-phenylquinolin-6-yl)(hydroxy)(pyridin-3-yl)methyl)piperidine-1-carboxylate]: 21 µM, 0.38 µM and 79%.
Consider `Cc1cc(C(O)(c2ccc3nc(Cl)c(-c4ccccc4)c(Cl)c3c2)c2nccn2C)cc(Cl)n1` (stereo not drawn) [Example 46, (2-Chloro-6-methylpyridin-4-yl)(2,4-dichloro-3-phenylquinolin-6-yl)(1-methyl-1H-imidazol-2-yl)methanol], for which the dissociation constant Kd in test [1] is 4 µM. In addition, on human RORγt LBD, inhibition was half-maximal at 2 µM (IC50) and the inhibition at 6 µM was determined as 94%.
The matching figures for `CCN(CC)c1nc2ccc(C(O)(c3cccnc3)c3cccc(Cl)c3)cc2c(C)c1-c1ccccc1` (stereo not drawn) [Example 103, (3-Chlorophenyl)[2-(diethylamino)-4-methyl-3-phenylquinolin-6-yl]pyridin-3-ylmethanol•TFA]: 1.4 µM, 2.2 µM and 85%.
As to `Cn1cncc1C(O)(c1ccnnc1)c1ccc2nc(Cl)c(-c3ccccc3)c(Cl)c2c1` (stereo not drawn) [Example 126, (2,4-Dichloro-3-phenylquinolin-6-yl)(1-methyl-1H-imidazol-5-yl)(pyridazin-4-yl)methanol], the Kd in test [1] is 0.021 µM. For the same molecule, on human RORγt LBD, the concentration for half-maximal inhibition (IC50) came to 0.22 µM and the inhibition at 6 µM came to 97%.
The matching figures for `CN(C)CCN(C)c1nc2ccc(C(O)(c3ccncc3)c3cncn3C)cc2c(Cl)c1-c1ccccc1` (stereo not drawn) [Example 64, (4-Chloro-2-{[2-(dimethylamino)ethyl](methyl)amino}-3-phenylquinolin-6-yl)(1-methyl-1H-imidazol-5-yl)pyridin-4-ylmethanol•TFA]: 0.5 µM, about 4 µM and 87%.
The matching figures for `CC(C)Oc1c(-c2ccccc2)c(Cl)nc2ccc(C(O)(c3ccncc3)c3cncn3C)cc12` (stereo not drawn) [Example 85, [2-Chloro-4-(1-methylethoxy)-3-phenylquinolin-6-yl](1-methyl-1H-imidazol-5-yl)pyridin-4-ylmethanol•TFA]: 0.13 µM, 0.64 µM and 92%.
`Cn1cncc1C(N)(c1ccc2nc(Cl)c(-c3ccccc3)c(Cl)c2c1)c1ccccn1` (stereo not drawn) [Example 31, 1-(2,4-Dichloro-3-phenylquinolin-6-yl)-1-(1-methyl-1H-imidazol-5-yl)-1-pyridin-2-ylmethanamine•HCl]: the Kd in test [1] is 5.6 µM. Further, on human RORγt LBD, 2.1 µM corresponded to half-maximal inhibition (IC50) and the inhibition at 6 µM was 67%.
Regarding `OC(c1ccc(C(F)(F)F)nc1)(c1cccc(Cl)c1)c1ccc2nc(Cl)c(-c3ccccc3)c(Cl)c2c1` (stereo not drawn) [Example 111, (3-Chlorophenyl)(2,4-dichloro-3-phenylquinolin-6-yl)(6-(trifluoromethyl)pyridin-3-yl)methanol], the Kd in test [1] is 0.64 µM. In addition, on human RORγt LBD, the concentration for half-maximal inhibition (IC50) was 1 µM and ~2 µM; the inhibition at 6 µM is 77%.
Regarding `Cc1noc(C)c1C(O)(c1ccc(Cl)cc1)c1ccc2nc(Cl)c(-c3ccccc3)c(Cl)c2c1` (stereo not drawn) [Example 133, (4-Chlorophenyl)(2,4-dichloro-3-phenylquinolin-6-yl)(3,5-dimethylisoxazol-4-yl)methanol•TFA], the dissociation constant (Kd) in test [1] is 1.5 µM. At human RORγt LBD, the IC50 is over 6 µM and the inhibition at 6 µM was found to be 41%.

(Values after patent publication US9309222B2, “Phenyl linked quinolinyl modulators of RORγt” (Janssen Pharmaceutica NV, priority 2012, dated 2016).)
